The assay is described as follows: Fatty acid composition in the livers of rats fed DHA-containing oil (Example 2). The note with it: rat liver, versus control group. The assay is classed as in vivo, Wistar rats. From the text:
Four-week-old male Wistar rats were initially raised for one week, and then divided into 2 groups described below.
perilla oil: safflower oil=7:3
rapeseed oil: DHA ethyl ester=3:2
For 4 weeks, the rats were fed experimental diets prepared by mixing 5% of the indicated oils for each of the groups to the basal feed.
The livers were excised from the raised rats of both groups, and lipids were extracted by the Folch method and upon conversion to the methyl ester, the amount of each fatty acid was analyzed by gas chromatography.

As to `CCC=CCC=CCC=CCC=CCC=CCC=CCCC(=O)O` [DHA, 4,7, 10, 13, 16, 19-docosahexaenoic acid], the “effect on the proportion of ARA in the liver (in words)” value is “significant decrease in the proportion of ARA”.

Source of the values: US6596766B1, “Utilization of material containing docosapentaenoic acid” (Suntory Limited, priority 1999, dated 2003).
